Experimental findings from patent publication US9447377B2, “Endodermal cells from pluripotent cells” (priority 2011, dated 2016) are described below.

Holding throughout (assay type): cell-based, murine
For experiment [1], the system named is wt ES cells. The experiment is described as follows: Differentiation of wt ES cells towards Sox17+ cells under PPP chemical inhibition, immunofluorescence analysis. The conditions noted are these: immunofluorescence with anti-Sox17 antibody; serum-free KSR neural differentiation medium. As for the experimental part: (§1) Wt murine or with a deletion of the gene coding for G6PD (G6pdΔ) embryonic stem (ES) cells have been differentiated following the method described in Fico et al. (Fico A et al., Stem Cells Dev 2008). Briefly, 48 h before the induction of the differentiation, the ES cells have been plated onto pre-gelatinized plates. On day 0, the cells have been dissociated, thus obtaining a single cell suspension, which have subsequently been plated onto gelatinized plates at a density of 1.500 cells/cm2. During the differentiation process, the culture medium has been changed every other day for the first 6 days, then daily. The culture medium used consists in the medium free from integrated Knockout Serum Replacement (KSR) serum, and contains knockout Dulbecco minimal essential medium, integrated with 15% KSR (Invitrogen), 2 mM glutamine, 100 U/ml penicillin/streptomycin, and 0.1 mM β-mercaptoethanol.
From 6 days of differentiation, the expression profiles of markers of undifferentiated cells and specific markers for the three germ layers have been analyzed by RT-PCR. The expression of Oct4 and Nanog, markers of undifferentiated ES cells, is detectable in both cell lines (FIG. 1A). […]

In experiment [2] the test system is wt ES cells. The experiment is described as follows: Differentiation of wt ES cells in the presence of D-(−)-ribose. The note with it: 10 neural differentiation days. As to the method:
as §1, with “[…]Δ)” for “(G6pdΔ)”, “β-mercaptoethanol. Heterozygous knock-out ES Pdg+/- cells for the phosphogluconate dehydrogenase (PDG) enzyme, the second enzyme present in the PPP, were exposed to the above-described differentiation procedure. These cells have reduced Pdg mRNA levels, and are not sensitive to oxidative stress. […] Furthermore, […]Δ cells were exposed to the same differentiation procedure, but in the presence of D-(-)-ribose. […]” for “β-mercaptoethanol.”

The subject of experiment [3] is G6pdΔ cells. The experiment is described as follows: Quantitative (real-time) PCR of Sox17 mRNA in G6pdΔ cells differentiated in the presence of D-(−)-ribose. The conditions noted are these: normalized to GAPDH, 10 neural differentiation days in the presence of D-(−)-ribose. As for the experimental part:
as §1, with “FIG. 2: (A) RT-PCR analysis of the expression of different specific differentiation markers in wt and Pgd+/- cells on neural differentiation days 8 and 10. (B) QRT-PCR analysis of Sox17 expression in wt ES e […]Δ cells after 10 neural differentiation days in the presence of D-(-)-ribose. Wt” for “Wt”, “[…]Δ)” for “(G6pdΔ)”, “β-mercaptoethanol. Heterozygous knock-out ES Pdg+/- cells for the phosphogluconate dehydrogenase (PDG) enzyme, the second enzyme present in the PPP, were exposed to the above-described differentiation procedure. […]” for “β-mercaptoethanol.”

Experiment [4] relates to G6pdΔ cells. The experiment is described as follows: Differentiation of G6pdΔ cells towards pancreatic precursors, Real Time PCR of Pdx1 expression. The conditions noted are these: G6pdΔ cells on differentiation day 8, 4 day exposure. As to the method:
as §1
The real-time PCR analysis was carried out with a Biorad CFX 96 Real time System apparatus using a SYBR Green PCR Master Mix (Biorad) and the protocol recommended by the manufacturer. The relative expression of the various genes was normalized by using GAPDH as the gene standard. The used oligos were:
G6pdΔ cells on differentiation day 8, that are already expressing Sox17, are exposed to Indolactam V, an inducer of the differentiation of endoderm precursors towards pancreatic precursors. […]
On the technique in general: Quantitative PCR measures a nucleic acid by following its amplification.

In the case of `NC(=O)c1ccc(N)nc1` [AN, 6-aminonicotinamide], the “induction of differentiation of wt ES cells towards Sox 17+ cells” value in the experiment with wt ES cells [1] is given as “capable of inducing the differentiation of wt ES cells towards Sox 17+ cells”.
With `O=C[C@H](O)[C@H](O)[C@H](O)CO` [D-(−)-ribose], in the experiment on wt ES cells [2], the “variation in the differentiation of wt ES cells” value is “does not lead to any variation in the differentiation of wt ES cells”. Moreover, the “Sox17 mRNA levels in G6pdΔ cells” value with G6pdΔ cells [3] is “a reduction in Sox17 mRNA levels”.
On to `C[C@]12CC[C@H](O)CC1=CC[C@@H]1[C@@H]2CC[C@]2(C)C(=O)CC[C@@H]12` [DHEA, dehydroepiandrosterone], for which, in the experiment with wt ES cells [1], the “induction of differentiation of wt ES cells towards Sox 17+ cells” value is on record as “capable of inducing the differentiation of wt ES cells towards Sox 17+ cells”.
In the case of `CC(C)[C@H]1C(=O)N[C@H](CO)Cc2c[nH]c3cccc(c23)N1C` [Indolactam V], the “increase in the Pdx1 expression levels compared to control cells” value in the experiment with G6pdΔ cells [4] is given as “about 2.5 times”.
